Each structure is given as a SMILES string.

This test deals with T1, Recombinant M-MuLV reverse transcriptase (Moloney murine leukemia virus, UniProt P03355).
T1 construct: Recombinant M-MuLV reverse transcriptase was purchased from New England Biolabs, USA; purchased New England Biolabs
Nature of the test: Inhibition of M-MuLV reverse transcriptase activity ((3H)dTTP incorporation). In kind it is biochemical. On the procedure:
The enhanced antiviral effect of the pharmaceutical composition of the invention was investigated by testing the inhibitory effect thereof on reverse transcriptase activity of Moloney murine virus(M-MuLV). Recombinant M-MuLV reverse transcriptase was purchased from New England Biolabs, USA. Measurement of the activity was carried out by investigating the poli(rA)noligo(dT)12-18 template-primer directed incorporation of (^3H)dTTP(Amersham) into the cDNS.
In each case, the final volume of the reaction mixture was 20 microliters. The composition of the reaction mixture was as follows:
2 microliters of 10× reverse transcriptase buffer,
20 microgram/ml template primer,
the test compound (dissolved in 1× reverse transcriptase buffer solution).
The composition of the 10× reverse transcriptase buffer (1 liter of solution contains the following substances):
500 mM tris-hydrochloride/tris (hydroxy-methyl)-amino-methan-hydrochloride/(pH=8,3),
300 mM potassium-chloride, and
100 mM DTT (dithiotreitol).
The test materials were AZT and compound “L” added separately or together. The reaction was initiated by adding 5U reverse transcriptase. The reaction mixture was incubated for 40 min at 37° C. Then, 15 microliters of reaction mixture was transferred to Whatman DE81 filter-paper disc, washed by 5% by mass of aqueous disodium-hydrogen-phosphate buffer, by water, and then with 96% by mass of ethanol. After drying, the discs were transferred into 5 ml of scintillation liquid (OptiPhase ‘HiSafe 3’, Wallac), and the radioactivity of samples was measured by a Packard Tri-Carb 2200 CE liquid scintillation counter. Enzymatic activity was calculated in percent from the experimental results.

Turning to `Cl.Cl.NC(=NOCC(O)CN1CCCCC1)c1cccnc1` (stereo not drawn) [compound “L”, 0-(3-piperidino-2-hydroxy-1-propyl)nicotinic acid amid-oxime dihydrochloride], the “Activity (%)” value reads like this: (0.02 mg/ml compound “L”, control = 100) 75%; (0.03 mg/ml compound “L”, control = 100) 74%. In addition, for the setting “compound “L” alone”, the inhibitory effect entry is listed as “about 25%”.

Consider `Cc1cn([C@H]2C[C@H](N=[N+]=[N-])[C@@H](CO)O2)c(=O)[nH]c1=O` [AZT, 3′-azido-3′-deoxythymidine], for which, for the setting “0.1 microM/ml AZT, control = 100”, the activity at 0.1 µM was 91%. Further, the activity at 0.2 µM (0.2 microM/ml AZT, control = 100) is 84%. Further, the “inhibitory effect on M-MuLV reverse transcriptase (in words)” value (AZT by itself, in the concentrations applied) is “only minor inhibitory effect”.

Source of the values: patent US6451851B1, “Pharmaceutical composition with antiviral activity containing an hydroxymic acid derivative and an antiviral agent” (N-Gene Research Laboratories Inc., priority 1997, dated 2002).
